This note sets out measurements from ChEMBL document CHEMBL1151363, “Chemical composition and biological activity of the Tanzanian plant Ocimum suave” (1981).

Values after ≈ are worked out from the molar mass of the structure shown.

What all share (assay type): functional
Assay [1] deals with Escherichia coli. Put plainly: Antimicrobial activity against Escherichia coli UNSWO24101 after 48 hrs.
Assay [2] relates to Micrococcus luteus. Put plainly: Antimicrobial activity against Micrococcus luteus ATCC 9341 after 48 hrs. As to conditions: ATCC 9341, 48 h.
Assay [3] relates to Staphylococcus aureus. The assay can be described thus: Antimicrobial activity against Staphylococcus aureus ATCC 6538 after 48 hrs. As to conditions: ATCC 6538, 48 h.
The subject of assay [4] is Saccharomyces cerevisiae. Put plainly: Antimicrobial activity against Saccharomyces cerevisiae UNSA Y-40 after 48 hrs.

`C=CCc1ccc(O)c(OC)c1` [EUGENOL]: the minimal inhibitory concentration (MIC) – broadly, the lowest concentration found to suppress growth – in assay [1] is 600 µg/mL (≈ 3.65 mM); in assay [2] it was 600 µg/mL (≈ 3.65 mM); in assay [3] it was 700 µg/mL (≈ 4.26 mM); in assay [4], 400 µg/mL (≈ 2.44 mM).
